According to US10364247B2, “Preparation and use of novel protein kinase inhibitors” (Ruijin Hospital Affiliated to Shanghai Jiao Tong University …, priority 2015, dated 2019):

Key:
[1] = tested on: SK-MEL-5, SK-MEL-28, and SK-MEL-30 cell lines; test: Melanoma cell proliferation; type: cell-based; settings: SK-MEL-5, SK-MEL-28 (B-Raf V600E), SK-MEL-30 (N-Ras Q61K); FIG. 3
Protocol: The ability of IA-9 to treat melanoma was tested using the SK-MEL-5, SK-MEL-28, and SK-MEL-30 cell lines. SK-MEL-5 and SK-MEL-28 express mutant B-Raf (V600E) and wildtype N-Ras. SK-MEL-30 expresses wildtype B-Raf and mutant N-Ras (Q61K). Cell proliferation was tested using methods described herein.

[2] = tested on: Ba/F3 cells expressing FLT3-ITD oncoprotein (ITD); test: Proliferation of FLT3-ITD expressing Ba/F3 cells; type: cell-based, murine
Protocol: A. Dose response curve of IA-9 in treating ITD cells is presented. ITD cells in the presence (ITD+) or absence of IL-3 (ITD−) were treated with 10 μM and 3-fold dilution series of IA-9. B. Dose response curve of IA-9 in treating MV-4-11 cells is shown. […].

KU812 cells = test: Human leukemia cell proliferation (CellTiter Glo); type: cell-based; settings: compared to Imatinib and Ponatinib; FIG. 1
Protocol: Comparison of 50% inhibition concentration (IC50) of IA-9, imatinib and Ponatinib in KU812 leukemia cells.
IA-9 is a strong kinase inhibitor among the compounds of the invention. The activity of IA-9 to inhibit human leukemia cell proliferation was tested using CellTiter Glo Assay (Promega).

CML mice = test: Mouse CML model, Kaplan-Meier survival; type: in vivo; settings: 10 mg/kg IA-9 by oral gavage twice a day vs vehicle and 50 mg/kg imatinib; FIG. 2
Protocol: The number (n) of mice treated in each group was indicated.
The activity of IA-9 to treat leukemia was tested in a mouse CML model as described ^4. Bone marrow cells from 5-fluorouracil (5-FU)-treated male BALB/c donor mice 5 days before were infected at a concentration of 1×10^6 cells/mL for 24 hours in a cocktail consisting of DMEM, 15% FCS, 5% WEHI-conditioned medium, 50% viral supernatant, 3 μg/mL polybrene, 2 mmol/L L-glutamine, PSA, 7 ng/mL IL-3, 12 ng/mL IL-6 and 56 ng/mL stem cell factor (SCF; R&D System). The infection was repeated once with freshly made retrovirus-containing cocktail as described above. The infected bone marrow cells were then washed once with phosphate-buffered saline and were injected into lethally irradiated (2 doses of 450 rads each dose administered 4 hours apart) syngeneic mice (female BALB/c; 6 to 8 weeks old) through the tail vein at 4×10^5 cells per mouse. Starting at […] bone marrow transplantation, the recipient mice were treated with vehicle (10% 1-methyl-2-pyrrolidinone:90% PEG-300), 50 mg/kg imatinib or 10 mg/kg IA-9 by oral gavage twice a day.

BaF3-TEL-HCK = molecular target: T1, BaF3-TEL-HCK (Homo sapiens, UniProt P08631); test: Antiproliferative activity, kinase-dependent Ba/F3 cells (MTT/MTS); type: cell-based, murine; settings: 48 hours, cell viability, read-out: Tel-HCK IC50
T1 construct: fused on or other part: P41212 (Transcription factor ETV6)
T1 sequence (P08631 whole entry, change not shown, the tested form may be a part): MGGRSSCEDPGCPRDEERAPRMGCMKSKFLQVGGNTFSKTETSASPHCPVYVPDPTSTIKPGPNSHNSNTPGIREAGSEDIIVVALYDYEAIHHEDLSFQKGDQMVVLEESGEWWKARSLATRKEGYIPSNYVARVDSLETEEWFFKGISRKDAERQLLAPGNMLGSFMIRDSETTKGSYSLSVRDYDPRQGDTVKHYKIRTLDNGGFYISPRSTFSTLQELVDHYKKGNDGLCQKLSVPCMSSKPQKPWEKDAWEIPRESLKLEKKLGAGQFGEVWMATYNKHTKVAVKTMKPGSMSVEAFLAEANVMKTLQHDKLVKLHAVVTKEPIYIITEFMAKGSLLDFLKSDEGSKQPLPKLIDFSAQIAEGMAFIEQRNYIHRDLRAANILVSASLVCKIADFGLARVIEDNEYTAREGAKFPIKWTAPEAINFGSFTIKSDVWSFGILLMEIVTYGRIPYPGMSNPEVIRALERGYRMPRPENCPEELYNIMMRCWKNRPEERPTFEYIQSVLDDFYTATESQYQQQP
Procedure, shortened: (§1)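 Murine Ba/F3 cells transformed with the indicated TEL- or EML4-fusion kinases, seeded at 20,000 cells/well in RPMI/10% FCS. Viability by MTT/MTS; IC50 as concentration reducing viability to 50% of DMSO vehicle control.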

BaF3-TEL-LYN = molecular target: T2, BaF3-TEL-LYN (Homo sapiens, UniProt P07948); test: as above; type: cell-based, murine; settings: 48 hours, cell viability, read-out: tel-LYN IC50
T2 construct: fused on or other part: P41212 (Transcription factor ETV6)
T2 sequence (P07948 whole entry, change not shown, the tested form may be a part): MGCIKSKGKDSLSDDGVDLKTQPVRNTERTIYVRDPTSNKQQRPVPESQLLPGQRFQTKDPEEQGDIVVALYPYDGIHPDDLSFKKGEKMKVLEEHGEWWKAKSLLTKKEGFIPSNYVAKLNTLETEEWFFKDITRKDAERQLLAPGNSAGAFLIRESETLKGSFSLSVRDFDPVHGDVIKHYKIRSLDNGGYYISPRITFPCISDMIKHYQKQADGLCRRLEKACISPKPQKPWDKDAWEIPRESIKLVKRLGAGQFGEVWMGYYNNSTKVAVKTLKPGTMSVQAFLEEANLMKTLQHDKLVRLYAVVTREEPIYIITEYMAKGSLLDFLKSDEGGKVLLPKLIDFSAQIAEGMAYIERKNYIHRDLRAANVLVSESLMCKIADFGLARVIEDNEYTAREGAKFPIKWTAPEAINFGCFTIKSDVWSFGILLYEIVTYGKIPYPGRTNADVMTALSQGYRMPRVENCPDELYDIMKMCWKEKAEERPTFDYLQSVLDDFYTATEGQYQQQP
Procedure, shortened: as §1

BaF3-TEL-INSR = molecular target: T3, BaF3-TEL-INSR (Homo sapiens, UniProt P06213); test: as above; type: cell-based, murine; settings: 48 hours, cell viability, read-out: Tel-INSR IC50
T3 construct: fused on or other part: P41212 (Transcription factor ETV6)
T3 sequence (P06213 whole entry, stated change not applied, the tested form may be a part): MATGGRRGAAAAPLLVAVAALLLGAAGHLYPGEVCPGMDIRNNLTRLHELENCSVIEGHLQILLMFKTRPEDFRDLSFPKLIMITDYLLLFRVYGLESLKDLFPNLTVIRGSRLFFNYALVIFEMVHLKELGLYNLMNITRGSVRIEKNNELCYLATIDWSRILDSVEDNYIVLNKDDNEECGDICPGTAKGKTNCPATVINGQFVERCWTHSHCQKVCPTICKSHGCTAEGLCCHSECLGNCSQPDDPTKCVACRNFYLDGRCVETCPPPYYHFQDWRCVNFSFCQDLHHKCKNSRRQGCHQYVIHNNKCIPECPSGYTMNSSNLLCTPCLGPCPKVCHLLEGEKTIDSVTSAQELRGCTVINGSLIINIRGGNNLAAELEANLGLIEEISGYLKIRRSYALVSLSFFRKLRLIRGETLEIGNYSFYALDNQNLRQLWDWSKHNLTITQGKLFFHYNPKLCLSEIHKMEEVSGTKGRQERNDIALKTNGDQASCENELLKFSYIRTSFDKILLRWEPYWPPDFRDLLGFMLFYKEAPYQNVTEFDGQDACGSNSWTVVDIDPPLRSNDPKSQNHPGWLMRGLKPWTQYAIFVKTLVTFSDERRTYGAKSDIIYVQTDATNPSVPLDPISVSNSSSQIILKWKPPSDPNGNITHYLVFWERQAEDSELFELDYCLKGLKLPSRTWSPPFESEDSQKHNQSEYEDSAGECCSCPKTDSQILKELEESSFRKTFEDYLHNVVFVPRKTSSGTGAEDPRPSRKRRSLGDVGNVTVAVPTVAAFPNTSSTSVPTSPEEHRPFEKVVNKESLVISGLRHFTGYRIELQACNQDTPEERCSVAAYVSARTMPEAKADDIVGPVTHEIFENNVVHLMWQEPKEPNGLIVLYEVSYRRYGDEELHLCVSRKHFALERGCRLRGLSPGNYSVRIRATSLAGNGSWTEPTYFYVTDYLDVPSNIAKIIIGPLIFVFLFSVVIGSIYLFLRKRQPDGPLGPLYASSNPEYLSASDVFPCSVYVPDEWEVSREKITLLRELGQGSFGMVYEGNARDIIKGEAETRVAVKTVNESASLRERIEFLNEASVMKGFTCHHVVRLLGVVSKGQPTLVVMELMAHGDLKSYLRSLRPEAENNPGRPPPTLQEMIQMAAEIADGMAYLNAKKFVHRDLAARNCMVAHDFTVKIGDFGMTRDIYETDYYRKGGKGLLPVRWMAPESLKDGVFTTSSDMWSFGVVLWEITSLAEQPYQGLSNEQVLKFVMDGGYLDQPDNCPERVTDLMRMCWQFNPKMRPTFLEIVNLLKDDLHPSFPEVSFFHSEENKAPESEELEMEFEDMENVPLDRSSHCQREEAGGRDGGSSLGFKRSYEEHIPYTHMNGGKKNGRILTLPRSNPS
Procedure, shortened: as §1

BaF3-EML4-ALK = molecular target: T4, BaF3-EML4-ALK (Homo sapiens, UniProt Q9UM73); test: as above; type: cell-based, murine; settings: 48 hours, cell viability, read-out: EML4-ALK IC50
T4 construct: fused on or other part: Q9HC35 (Echinoderm microtubule-associated protein-like 4)
Procedure, shortened: as §1

BaF3-TEL-TIE1 = molecular target: T5, BaF3-TEL-TIE1 (Homo sapiens, UniProt P35590); test: as above; type: cell-based, murine; settings: 48 hours, cell viability, read-out: tel-TIE1 IC50
T5 construct: fused on or other part: P41212 (Transcription factor ETV6)
T5 sequence (P35590 whole entry, change not shown, the tested form may be a part): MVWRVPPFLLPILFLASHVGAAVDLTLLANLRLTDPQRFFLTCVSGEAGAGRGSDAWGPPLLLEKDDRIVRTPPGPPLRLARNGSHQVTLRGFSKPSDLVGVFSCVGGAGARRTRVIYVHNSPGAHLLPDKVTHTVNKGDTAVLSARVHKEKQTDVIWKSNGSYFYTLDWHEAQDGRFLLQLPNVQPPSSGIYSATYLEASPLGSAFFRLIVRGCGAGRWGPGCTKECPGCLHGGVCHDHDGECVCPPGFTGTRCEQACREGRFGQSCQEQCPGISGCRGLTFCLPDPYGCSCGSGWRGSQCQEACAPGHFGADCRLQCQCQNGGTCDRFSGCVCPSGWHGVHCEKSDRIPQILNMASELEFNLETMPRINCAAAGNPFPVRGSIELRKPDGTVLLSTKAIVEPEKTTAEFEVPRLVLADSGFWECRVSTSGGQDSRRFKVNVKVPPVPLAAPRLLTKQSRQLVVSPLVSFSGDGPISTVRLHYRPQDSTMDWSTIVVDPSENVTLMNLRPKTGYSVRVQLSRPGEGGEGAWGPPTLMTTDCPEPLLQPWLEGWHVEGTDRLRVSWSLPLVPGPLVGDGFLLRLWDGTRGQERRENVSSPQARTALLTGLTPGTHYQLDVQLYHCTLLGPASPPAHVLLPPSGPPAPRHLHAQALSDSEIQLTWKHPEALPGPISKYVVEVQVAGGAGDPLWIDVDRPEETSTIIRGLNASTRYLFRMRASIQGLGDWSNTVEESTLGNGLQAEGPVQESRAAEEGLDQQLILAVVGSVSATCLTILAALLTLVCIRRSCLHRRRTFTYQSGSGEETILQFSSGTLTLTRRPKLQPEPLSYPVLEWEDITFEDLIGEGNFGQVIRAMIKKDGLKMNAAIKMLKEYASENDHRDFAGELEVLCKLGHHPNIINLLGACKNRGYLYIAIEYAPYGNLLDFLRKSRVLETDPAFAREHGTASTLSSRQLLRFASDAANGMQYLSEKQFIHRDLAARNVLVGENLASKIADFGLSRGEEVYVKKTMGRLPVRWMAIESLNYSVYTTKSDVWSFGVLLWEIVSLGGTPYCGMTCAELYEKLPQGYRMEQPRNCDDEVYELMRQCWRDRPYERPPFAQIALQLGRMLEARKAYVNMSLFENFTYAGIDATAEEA
Procedure, shortened: as §1

[3] = tested on: NCI-H1975 and HCC827 cell lines; test: Lung adenocarcinoma cell proliferation; type: cell-based; settings: FIG. 4
Protocol: The ability of IA-9 to treat lung adenocarcinoma was tested using the NCI-H1975 and HCC827 cell lines. Both cell lines harbor at least EGFR and Ras mutations and are multi-drug resistant. Cell proliferation was tested using methods described herein.

Cc1ccc(Nc2ncc3c(n2)N(C)CN(c2cc(NC(=O)c4cccc(C(F)(F)F)c4)ccc2C)C3)cn1 [IA-9, N-(4-methyl-3-(1-methyl-7-((6-methylpyridin-3-yl)amino)-1,4-dihydropyrimido[4,5-d]pyrimidin-3(2H)-yl)phenyl)-3-(trifluoromethyl)benzamide]
reduction of proliferation of melanoma cells [1]: reduce the proliferation of melanoma cells | potential therapeutic window (ITD cells with vs without IL-3) ([2]; FLT3-ITD transformed cells, IL-3 rescue): 80 fold | inhibition of proliferation/viability of ITD cells ([2]; absence of IL-3, FIG. 5A): effectively inhibits the proliferation/viability of ITD cells | proliferation/survival of ITD cells on addition of IL-3 ([2]; presence of IL-3, FIG. 5A): largely rescues the proliferation/survival of the ITD cells | inhibition of proliferation of KU812 cells (KU812 cells): stronger ability to inhibit proliferation of KU812 cells | anti-leukemia activity (Kaplan-Meier survival) (CML mice): significantly stronger anti-leukemia activity | GI50 (BaF3-TEL-HCK): 639 nM | GI50 (BaF3-TEL-LYN): 225 nM | GI50 (BaF3-TEL-INSR): 869 nM | GI50 (BaF3-EML4-ALK): 1470 nM | GI50 (BaF3-TEL-TIE1): 519 nM | reduction of proliferation of lung adenocarcinoma cells [3]: reduce the proliferation of lung adenocarcinoma cells
